Test results as given in the NIST ThermoML archive (doi:10.1016/j.jct.2016.01.019).

Assay: refractive index (other wavelength) (dimensionless); xn = mol fraction of the nth substance listed
Conditions: 94.64 kPa, Liquid, Standard Abbe refractometry, x1 = 1

CC(O)CO (stereo not drawn) [1,2-propanediol] + OCCCO
refractive index
Conditions | Wavelength=404.7 nm | Wavelength=435.8 nm | Wavelength=486.1 nm | Wavelength=546.1 nm | Wavelength=587.6 nm | Wavelength=632.8 nm | Wavelength=644 nm | Wavelength=706.5 nm
293.15 K | 1.445 | 1.44204 | 1.43722 | 1.43406 | 1.43227 | 1.43023 | 1.43008 | 1.42866
298.15 K | 1.4429 | 1.43967 | 1.43566 | 1.43245 | 1.4305 | 1.429 | 1.4289 | 1.42701
303.15 K | 1.44135 | 1.43785 | 1.43417 | 1.43096 | 1.42927 | 1.42774 | 1.42734 | 1.42571
308.15 K | 1.43955 | 1.43622 | 1.43239 | 1.42919 | 1.42752 | 1.426 | 1.42565 | 1.42397
313.15 K | 1.43771 | 1.43437 | 1.43055 | 1.42738 | 1.42572 | 1.4242 | 1.42386 | 1.42219
318.15 K | 1.43584 | 1.43252 | 1.42875 | 1.42557 | 1.42392 | 1.42243 | 1.42208 | 1.42043
